The test system of test [1] is human colon carcinoma HT29 cells. Kind of test: Growth inhibition (MTT), HT29 cells. It is filed as cell-based. The following applies: HT-29, 144 h, 6 days. How it is done: (§1) Exponentially growing cells (1-2×10^3 cells, unless specified otherwise) in 0.1 ml medium were seeded on day 0 in a 96-well microtiter plate. On day 1, 0.1 ml aliquots of medium containing graded concentrations of test analogs were added in duplicate to the cell plates. After incubation at 37° C. in a humidified incubator for 6 days, the plates were centrifuged briefly and 100 μl of the growth medium was removed. Cell cultures were incubated with 50 μl of 3-(4,5-dimethylthiazol-2-yl)-2,5-diphenyl-tetrazolium bromide, (MTT) at a concentration of 1 mg/ml in Dulbecco's phosphate buffered saline (PBS)) for 4 hr at 37° C. The resulting purple formazan precipitate was solubilized with 200 μl of 0.04 N HCl in isopropyl alcohol. Absorbance was monitored in a BioRad Model 3550 Microplate Reader at a test wavelength of 570 nm and a reference wavelength of 630 nm. The absorbance was transferred to a PC 486 computer. The IC50 values were determined by a computer program (EZ-ED50) that fits all the data to the following four-parameter logistic equation: [formula]
(§2) where Amax is the absorbance of control cells, Amin is the absorbance of cells in the presence of highest agent concentration, Y is the observed absorbance, X is the agent concentration, IC50 is the concentration of agent that inhibits the cell growth by 50% of control cells (based on the absorbance) and n is the slope of the curve.
(§3) This is due to the extracellular dephosphorylation of the mono-, di-, or triphosphates by […] or 5′-nucleotidase back to the nucleoside. With this in mind, the inventors used only nucleosides rather than nucleoside triphosphates in these studies. Cultured tumor cells were incubated with selected nucleosides at graded concentrations for 6 days and the growth inhibition was determined by the standard MTT assay.

The test system of test [2] is transformed human embryonic kidney 293 cells. The test can be described thus: Growth inhibition (MTT), 293 cells. It is filed as cell-based. The following applies: HEK293, 144 h, 6 days. The procedure: as §1, §2, §3
In a further test the target is T1, human telomerase (Homo sapiens, UniProt O14746).
T1 construct: telomerase in S100 extracts of transformed human fetal kidney tumor 293 cells (a processive telomerase); endogenous in cells; host or cells: human cells, (S100 extract)
The test can be described thus: Cell-free telomerase inhibition, conventional or modified assay not stated. It is filed as biochemical. The procedure:
Selected nucleoside triphosphates were tested in one or both of the “conventional” or “modified” telomerase assays described in Methods using the human processive and the CHO non-processive telomerases. Initially, three chain-terminators were selected: 2′,3′-dideoxythymidine triphosphate (ddTTP), 3′-fluoro-2′,3′-dideoxythymidine triphosphate (F-ddTTP), and 3′-azido-2′-, 3′-dideoxythymidine triphosphate (AZ-ddTTP) as prototype agents to investigate whether they could inhibit telomerase activity. The three compounds are dTTP analogs without a 3′-OH group for subsequent chain elongation. They may either incorporate into the telomere sequence and terminate further chain elongation or compete directly with dTTP for the substrate binding site in the telomerase reaction. In either case, telomerase activity is inhibited.

In test [3] the target is T2, human 293 cell telomerase (Homo sapiens, UniProt O14746).
T2 construct: with 20 μl of S100 enzyme extract; endogenous in cells; host or cells: 293 cells (transformed human embryonic kidney), S100 extract
Kind of test: Conventional telomerase assay (32P-dGTP as radiolabel substrate). It is filed as biochemical. The following applies: for Inhibition of 293 Telomerase, Conventional Assay *dGTP: up to 2 mM. The procedure:
Telomerase was prepared from transformed human embryonic kidney 293 cell line. Human embryonic kidney 293 cells were grown in Joklik's modified MEM niedium (Sigma, St Louis, Mo.) supplemented with 5% fetal bovine serum at 37° C. in a humidified atmosphere with 5% CO2. The cells were subcultured at 1-2×10^5 cells/ml twice a week. When the cells grew to approximately 1×10^6 cells/ml, the cells (˜2×10^9 cells) were centrifuged and transferred into polypropylene centrifuge (50 ml) tubes and kept on ice. The cells were then centrifuged in a (Beckman GS-6R) centrifuge at 1200 RPM for 10 minutes at 4° C., and resuspended in PBS. The washed cells were resuspended in 15 ml Hypobuffer Mix (10 mM HEPES, pH 8.0, 3 mM KCl, 1 mM MgCl2, 1 mM dithiothreitol, 1 μM leupeptin, 0.1 mM PMSF, 10 μM pepstatin, 0.83 μg/ml chymostatin, 0.83 μg/ml antipain, and 43.2 units/ml RNase Guard) and centrifuged. The cell pellets were resuspended in 0.75×volumes Hypobuffer [Hypobuffer Mix+40 units/ml RNase Guard (Pharmacia, N.J.) to allow the cells to swell. The cell suspensions were homogenized to allow the telomerase to “leak” into the cytosolic fraction. The lysate was then poured into new, autoclaved, 3 ml polyallomer ultracentrifuge tubes and centrifuged at 100,000×g for 1 hour at 4° C. A top lipid layer was carefully removed and discarded, and the supernatant was collected. 1/50 of the volume of 5 M NaCl was added to the clear supernatant fluid to achieve a final concentration of 0.1 M. Sterile glycerol was added until the final glycerol concentration was 20%. The enzyme solution was aliquoted into Eppendorf tubes and quickly frozen in liquid nitrogen and stored at −70° C.
The assay is based on the ability of the telomerase enzyme in the S100 fractions to recognize an 18-base DNA primer with the DNA sequence (TTAGGG)3. DNA polymerization initiates from the 3′-OH group of the oligonucleotide. By reading from its complementary internal RNA template, telomerase adds a repeated set of 5′-TTAGGG-3′ to the original 18-base primer. Non-synchronous “starts” and “terminations” among the different enzyme complexes result in a degenerative set of different length DNA primers occurring in 6-base increments. Incorporation of [α-^32P]dGTP at the guanine positions of the 5′-TTAGGG-3′ sequence allows the newly synthesized DNA fragments to be visualized by autoradiography. The resulting image forms the characteristic “ladder” structure that is used to identify telomerase activity. The images are scanned using a phosphoimager or laser densitometer (Molecular Dynamics, Sunnyvale, Calif.). Comparisons of the total volumes under the corresponding peaks are used to quantitate the total amount of [α-^32P] incorporated in the primer extension reaction.
The telomerase assay was initiated by mixing 20 μl of 2×reaction mix (100 mM Tris-OAc, pH 8.5, 100 mM KOAc, 10 mM β-mercaptoethanol, 2 mM spermidine, 2 mM MgCl2, 2 mM dATP, 2 mM dTTP, 2 μM oligo primer, potential inhibitors of interest at the appropriate concentration, and 50 μCi [α^32-P]dGTP) with 20 μl of S100 enzyme extract. The reaction mixture was then incubated at 30° C. for 1 hour. The reaction was stopped by incubating sequentially with 50 μl of the stop solution (10 mM Tris pH 7.5, 20 mM EDTA, 0.1 mg/ml RNase A) and 50 μl of deproteinase solution (10 mM Tris pH 7.5, 0.5% SDS, 0.3 mg/ml Proteinase K). The mixture was extracted with 50% phenol/50% chloroform (v/v). The DNA was then precipitated by adding 2.5×volumes of cold EtOH and letting it stand overnight at −70° C. The DNAs were separated on an 8% polyacrylamide/7M urea denaturing gel at 1600 V for 1.5 hours. The gel was dried and exposed to Kodak XAR-5 film to gel in −70° C. Typical autoradiographic exposures required 3-14 days.

pIC50: −log10 of the molar value. Entries after “also recorded” stand apart in the source; their conditions may differ.

T2 sequence (O14746 whole entry): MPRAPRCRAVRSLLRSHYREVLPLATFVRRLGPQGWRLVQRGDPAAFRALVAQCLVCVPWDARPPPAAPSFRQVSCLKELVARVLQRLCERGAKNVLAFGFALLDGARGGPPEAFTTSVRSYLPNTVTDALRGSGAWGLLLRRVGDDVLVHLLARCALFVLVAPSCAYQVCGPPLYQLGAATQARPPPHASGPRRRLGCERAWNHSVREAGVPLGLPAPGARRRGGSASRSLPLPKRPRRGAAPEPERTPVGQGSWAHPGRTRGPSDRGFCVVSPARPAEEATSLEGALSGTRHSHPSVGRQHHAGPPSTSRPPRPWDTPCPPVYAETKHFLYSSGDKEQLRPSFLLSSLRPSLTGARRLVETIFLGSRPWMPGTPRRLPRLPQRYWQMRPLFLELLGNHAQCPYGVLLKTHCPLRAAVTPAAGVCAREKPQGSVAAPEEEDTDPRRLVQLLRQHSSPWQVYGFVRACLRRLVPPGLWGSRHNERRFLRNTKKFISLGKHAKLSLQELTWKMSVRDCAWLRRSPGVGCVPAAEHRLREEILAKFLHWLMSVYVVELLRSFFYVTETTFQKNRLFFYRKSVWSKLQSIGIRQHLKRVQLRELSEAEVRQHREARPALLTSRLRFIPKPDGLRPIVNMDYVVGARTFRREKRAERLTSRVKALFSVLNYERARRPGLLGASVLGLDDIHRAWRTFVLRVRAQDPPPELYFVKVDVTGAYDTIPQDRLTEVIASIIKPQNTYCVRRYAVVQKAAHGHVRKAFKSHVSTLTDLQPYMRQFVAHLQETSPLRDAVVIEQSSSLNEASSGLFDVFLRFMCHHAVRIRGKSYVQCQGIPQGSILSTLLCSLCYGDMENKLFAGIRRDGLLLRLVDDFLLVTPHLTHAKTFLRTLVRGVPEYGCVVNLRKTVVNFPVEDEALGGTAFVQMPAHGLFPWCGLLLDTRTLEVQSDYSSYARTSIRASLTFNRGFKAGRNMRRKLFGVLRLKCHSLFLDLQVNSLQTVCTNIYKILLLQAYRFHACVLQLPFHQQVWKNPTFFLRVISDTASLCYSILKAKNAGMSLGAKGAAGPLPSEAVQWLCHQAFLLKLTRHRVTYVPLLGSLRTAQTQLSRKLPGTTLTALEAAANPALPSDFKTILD
T2 sequence (O60832 whole entry partner): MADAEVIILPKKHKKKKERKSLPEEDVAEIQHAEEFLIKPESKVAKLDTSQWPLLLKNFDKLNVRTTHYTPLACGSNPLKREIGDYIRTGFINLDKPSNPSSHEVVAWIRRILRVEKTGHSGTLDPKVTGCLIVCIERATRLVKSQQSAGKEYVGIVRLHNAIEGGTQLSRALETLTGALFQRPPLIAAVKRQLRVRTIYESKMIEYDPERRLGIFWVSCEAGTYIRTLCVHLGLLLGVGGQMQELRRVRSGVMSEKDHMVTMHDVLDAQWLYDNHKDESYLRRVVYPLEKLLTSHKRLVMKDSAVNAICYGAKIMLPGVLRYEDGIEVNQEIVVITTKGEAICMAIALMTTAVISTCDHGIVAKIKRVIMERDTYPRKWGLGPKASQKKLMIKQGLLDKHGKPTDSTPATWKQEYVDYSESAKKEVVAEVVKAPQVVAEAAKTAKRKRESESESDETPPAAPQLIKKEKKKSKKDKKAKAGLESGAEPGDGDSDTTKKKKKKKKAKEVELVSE
T2 sequence (Q9NPE3 whole entry partner): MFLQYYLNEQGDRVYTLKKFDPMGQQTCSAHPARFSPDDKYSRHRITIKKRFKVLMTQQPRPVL
T2 sequence (Q9NX24 whole entry partner): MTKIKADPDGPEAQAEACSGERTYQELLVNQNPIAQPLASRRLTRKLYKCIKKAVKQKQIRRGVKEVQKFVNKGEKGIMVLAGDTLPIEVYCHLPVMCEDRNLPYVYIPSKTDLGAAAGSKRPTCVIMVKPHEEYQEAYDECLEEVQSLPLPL
T2 sequence (Q9NY12 whole entry partner): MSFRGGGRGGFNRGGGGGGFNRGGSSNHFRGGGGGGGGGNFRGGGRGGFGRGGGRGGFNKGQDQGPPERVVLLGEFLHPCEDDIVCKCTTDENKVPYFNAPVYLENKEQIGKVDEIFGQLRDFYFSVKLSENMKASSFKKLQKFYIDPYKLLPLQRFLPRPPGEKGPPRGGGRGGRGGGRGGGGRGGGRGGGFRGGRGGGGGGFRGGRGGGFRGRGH
T1 sequence (O14746 whole entry): as the sequence (O14746 whole entry) above
T1 sequence (O60832 whole entry partner): as the sequence (O60832 whole entry partner) above
T1 sequence (Q9NPE3 whole entry partner): as the sequence (Q9NPE3 whole entry partner) above
T1 sequence (Q9NX24 whole entry partner): as the sequence (Q9NX24 whole entry partner) above
T1 sequence (Q9NY12 whole entry partner): as the sequence (Q9NY12 whole entry partner) above

Broadly, the pIC50 is the IC50 on a negative log10 scale, so that one unit is a factor of ten. In the case of `Nc1ncnc2c1ccn2[C@H]1C[C@H](O)[C@@H](CO)O1` [NA024, 7-Deaza-2′-Deoxyadenosine], the results for the pIC50 in test [1] and in test [2] were 3.83 and 3.27, respectively.
For `Nc1nc2c(c(I)cn2[C@H]2C[C@H](O)[C@@H](CO)O2)c(=O)[nH]1` [FS021, 7-Iodo-7-Deaza-2′-Deoxyguanosine], in that order: 4.10 and 4.20.
The corresponding values for `Nc1nc2c(ccn2[C@H]2C[C@H](O)[C@@H](CO)O2)c(=O)[nH]1` [NA025, 7-Deaza-2′-Deoxyguanosine] are 3.99 and 3.89.
Consider `Nc1ncnc2c1c(I)cn2[C@H]1C[C@H](O)[C@@H](CO)O1` [FS004, 7-Iodo-7-Deaza-2′-Deoxyadenosine], for which the pIC50 is 5.73 in test [1] and 6.50 in test [2].
For the molecule `Cc1cn([C@H]2C[C@H](O)[C@@H](COP(=O)(O)OP(=O)(O)OP(=O)(O)O)O2)c(=O)[nH]c1=S` [4-thiothymidine triphosphate], at human telomerase (1 mM), the “inhibition of human telomerase activity” value was “completely”.
`Nc1ncnc2c1c(I)nn2[C@H]1C[C@H](O)[C@@H](CO)O1` [FS015, 7-Iodo-7-Deaza-8-Aza-2′-Deoxyadenosine]: the pIC50 in test [1] was 5.09; in test [2] it was 5.72.
On to `Nc1nc2c(ncn2[C@H]2C[C@H](O)[C@@H](COP(=O)(O)OP(=O)(O)CP(=O)(O)O)O2)c(=O)[nH]1` [NA014, 2′-Deoxyguanosine-5′-β,γ-Methylene Triphosphate], for which, in test [3] (0.125 mM, read-out: % of Control), the remaining activity at 125 µM turned out to be 60%. The remaining activity at 250 µM in test [3] (0.25 mM, read-out: % of Control) was 38%. Further, in test [3] (0.5 mM, read-out: % of Control), the remaining activity at 500 µM is 42%. Besides, the remaining activity at 1000 µM in test [3] (1.0 mM, read-out: % of Control) was found to be 40%. In addition, the remaining activity at 2000 µM in test [3] (2.0 mM, read-out: % of Control) was 28%. Moreover, the negative-log IC50 (pIC50) in test [3] (293 cell telomerase) is over 3.90; at human telomerase (Summary values, assay variant not stated, read-out: IC50) it was 3.99.
Regarding “5-Allylamino-2′-Deoxyuridine-5′-Triphosphate [NA021]”, the “% of Control” value in test [3] (0.125 mM) came out at 51%; in test [3] (0.25 mM) it was 70%; in test [3] (0.5 mM) it was 43%; in test [3] (1.0 mM), 33%; in test [3] (2.0 mM), 30%; in test [3] (10 mM (so in the source)), 100%. Also, in test [3] (293 cell telomerase), the pIC50 is about 3.30. The “Inhibition of 293 Telomerase, Conventional Assay *dGTP” value (from here on “Inhibition of 293 Telomerase”) in test [3] is recorded as “concentration dependent inhibition; also recorded: the telomerase activity is weak)”.
With `N#Cc1cn([C@H]2C[C@H](O)[C@@H](CO)O2)c2ncnc(N)c12` [FS005, 7-Cyano-7-Deaza-2′-Deoxyadenosine], the pIC50 in test [1] is 4.29; in test [2], 4.74.
For `Nc1nc2c(c(Br)cn2[C@H]2C[C@H](O)[C@@H](CO)O2)c(=O)[nH]1` [FS020, 7-Bromo-7-Deaza-2′-Deoxyguanosine], in that order: 3.77 and 3.74.
The corresponding values for `Nc1ncnc2c1c(Cl)cn2[C@H]1C[C@H](O)[C@@H](CO)O1` [FS017, 7-Chloro-7-Deaza-2′-Deoxyadenosine] are 4.81 and 5.48.
The corresponding values for `Nc1ncnc2c1c(Br)cn2[C@H]1C[C@H](O)[C@@H](CO)O1` [FS018, 7-Bromo-7-Deaza-2′-Deoxyadenosine] are 6.02 and 5.94.
For `Cc1cn([C@H]2C[C@H](O)[C@@H](CO)O2)c2nc(N)[nH]c(=O)c12` [FS022, 7-Methyl-7-Deaza-2′-Deoxyguanosine], the pIC50 in test [1] was 3.71; in test [2], 3.31.
For the molecule `Cc1cn([C@H]2C[C@H](O)[C@@H](CO)O2)c2ncnc(N)c12` [FS024, 7-Methyl-7-Deaza-2′-Deoxyadenosine], the pIC50 in test [1] was 4.00; in test [2], 3.96.
Consider `Nc1nc2c(ncn2[C@H]2C[C@H](O)[C@@H](COP(O)(O)=S)O2)c(=O)[nH]1` [NA015, 2′-Deoxyguanosine-5′-Phosphorothioate], for which the “Inhibition of 293 Telomerase” value in test [3] is on record as “No Inhibition (up to 2 mM)”.
With `Nc1nc2c(c(Cl)cn2[C@H]2C[C@H](O)[C@@H](CO)O2)c(=O)[nH]1` [FS019, 7-Chloro-7-Deaza-2′-Deoxyguanosine], the results for the pIC50 in test [1] and in test [2] were 3.96 and 3.63, respectively.
In the case of `Nc1nc2c(ncn2[C@@H]2O[C@H](COP(=O)(O)OP(=O)(O)CP(=O)(O)O)[C@@H](O)[C@H]2O)c(=O)[nH]1` [NA011, Guanosine-5′-β,γ-Methylene Triphosphate], the “% of Control” value is reported as 82% in test [3] (0.125 mM); 63% in test [3] (0.25 mM); 86% in test [3] (0.5 mM); 70% in test [3] (1.0 mM); 65% in test [3] (2.0 mM). In addition, the “Inhibition of 293 Telomerase” value in test [3] is “inactive; also recorded: No Inhibition (up to 2 mM)”.
In the case of `Cc1cn([C@H]2CC[C@@H](COP(=O)(O)OP(=O)(O)OP(=O)(O)O)O2)c(=O)[nH]c1=O` [NA001, 2′,3′-Dideoxythymidine-5′-Triphosphate], the pIC50 in test [3] (293 cells telomerase, competing dTTP 1-2 mM, inhibitor 0 to 2 mM) was about 3.30.
Consider `Cn1c(N)nc2c(ccn2[C@H]2C[C@H](O)[C@@H](CO)O2)c1=S` [NA027, 1-Methyl-6-Thio-7-Deaza-2′-Deoxyguanosine], for which the pIC50 was 3.51 in test [1] and 3.79 in test [2].

(Values after patent US6593306B1, “Methods for modulation and inhibition of telomerase” (Board of Regents, The University of Texas Systems, priority 1995, dated 2003).)
